Experimental data from patent US10035799B2, “COMT inhibiting methods and compositions” (Lieber Institute for Brain Development, priority 2015, dated 2018).

Columns and labels:
[1] = Russ, et al. 1999; cited from earlier work
[2] = clinical use; Olanow and Watkins 2007; cited from earlier work
[3] = Nutt and Fellman 1984; cited from earlier work
[4] = biological target: T1, catechol-O-methyltransferase (COMT) (Homo sapiens, UniProt P21964); test: COMT inhibition assay (HTRF, production of S-adenosyl homocysteine); format: biochemical; conditions: recombinant human COMT, HTRF SAH production; MB-COMT or S-COMT not stated for Table 1
T1 construct: M51A variant) was expressed in HEK 293F cells
T1 sequence (P21964 52-271 limits assumed): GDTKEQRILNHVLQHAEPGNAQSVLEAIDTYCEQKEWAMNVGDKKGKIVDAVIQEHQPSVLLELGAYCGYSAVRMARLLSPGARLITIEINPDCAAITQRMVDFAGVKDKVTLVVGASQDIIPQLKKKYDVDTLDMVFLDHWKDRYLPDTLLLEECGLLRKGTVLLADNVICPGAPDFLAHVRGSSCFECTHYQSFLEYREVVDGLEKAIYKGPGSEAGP
In short: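 SAH formed from SAM (20 μM) measured by HTRF with SAH standard curve; pIC50 from 4-parameter fit. MB-COMT (M51A, HEK293F membranes, 62 ng/well): 1.5 μM dopamine, 40 min, 37° C.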

[5] = biological target: T2, aromatic amino acid decarboxylase (AAAD) (Homo sapiens, UniProt P20711); conditions: given with L-DOPA; Nutt, Woodward et al. 1985; cited from earlier work
T2 sequence (P20711 1-480): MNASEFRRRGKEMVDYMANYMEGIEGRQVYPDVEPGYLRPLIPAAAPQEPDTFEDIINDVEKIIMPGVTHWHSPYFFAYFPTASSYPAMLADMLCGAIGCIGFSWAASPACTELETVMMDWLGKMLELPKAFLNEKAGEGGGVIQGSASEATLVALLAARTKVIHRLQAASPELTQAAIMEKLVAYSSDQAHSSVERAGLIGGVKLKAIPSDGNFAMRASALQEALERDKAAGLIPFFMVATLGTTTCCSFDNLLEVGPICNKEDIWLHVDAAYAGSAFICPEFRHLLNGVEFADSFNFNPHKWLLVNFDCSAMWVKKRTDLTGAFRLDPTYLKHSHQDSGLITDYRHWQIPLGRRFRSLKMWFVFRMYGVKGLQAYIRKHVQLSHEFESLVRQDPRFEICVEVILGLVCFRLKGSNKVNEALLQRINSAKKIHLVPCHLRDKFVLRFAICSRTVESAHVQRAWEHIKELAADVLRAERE

Row | SMILES | Activity range (pIC50, COMT inhibition) [4] | also measured
1 | Cc1ccc(C(=O)c2cc(O)c(O)c([N+](=O)[O-])c2)cc1 [tolcapone] |  | brain penetration [1]: low but measurable; liver injury [2]: serious liver injury, including three deaths
2 | N[C@@H](Cc1ccc(O)c(O)c1)C(=O)O [L-DOPA] |  | percentage of exogenously administered L-DOPA that reaches the brain [3]: ~1%
3 | CCN(CC)C(=O)/C(C#N)=C/c1cc(O)c(O)c([N+](=O)[O-])c1 [entacapone] |  | brain penetration [1]: negligible
4 | O=S(=O)(c1ccc(Cl)c(Cl)c1)c1ccc(O)c2ncccc12 [Example 15, 5-(3,4-dichlorophenyl)sulfonylquinolin-8-ol] | ++ (a pIC50 of from about great than 6 to 7) | 
5 | O=S(=O)(c1ccc(O)c2ncccc12)N1CCN(c2nsc3ccccc23)CC1 [Example 98, 5-[4-(1,2-benzothiazol-3-yl)piperazin-1-yl]sulfonylquinolin-8-ol] | ++ (a pIC50 of from about great than 6 to 7) | 
6 | CC1CN(C(=O)OC(C)(C)C)CCN1S(=O)(=O)c1ccc(O)c2ncccc12 (stereo not drawn) [Example 105, tert-butyl 4-[(8-hydroxy-5-quinolyl)sulfonyl]-3-methyl-piperazine-1-carboxylate] | ++ (a pIC50 of from about great than 6 to 7) | 
7 | CN(Cc1ccccc1F)S(=O)(=O)c1ccc(O)c2ncccc12 [Example 52, N-[(2-fluorophenyl)methyl]-8-hydroxy-N-methyl-quinoline-5-sulfonamide] | +++ (a pIC50 of above about 7) | 
8 | O=S(=O)(c1ccc(O)c2ncccc12)C1CCNCC1 [Example 34, 5-(4-piperidylsulfonyl)quinolin-8-ol] | ++ (a pIC50 of from about great than 6 to 7) | 
9 | O=S(=O)(c1ccccc1)c1ccc(O)c2ncccc12 [Example 22, 5-(benzenesulfonyl)quinolin-8-ol] | +++ (a pIC50 of above about 7) | 
10 | O=S(=O)(c1ccc(O)c2ncccc12)C1CCN(c2ccc(F)cc2)CC1 [Example 37, 5-[[1-(4-fluorophenyl)-4-piperidyl]sulfonyl]quinolin-8-ol] | ++ (a pIC50 of from about great than 6 to 7) | 
11 | O=S(=O)(c1ccc(O)c2ncccc12)N1CCC(c2ccccc2)CC1 [Example 73, 5-[(4-phenyl-1-piperidyl)sulfonyl]quinolin-8-ol] | +++ (a pIC50 of above about 7) | 
12 | O=S(=O)(c1ccc(O)c2ncccc12)N1CCc2cccnc2C1 [Example 67, 5-(6,8-dihydro-5H-1,7-naphthyridin-7-ylsulfonyl)quinolin-8-ol] | +++ (a pIC50 of above about 7) | 
13 | O=S(=O)(c1ccc(O)c2ncccc12)N1CCN(c2ccc(C(F)(F)F)cc2)CC1 [Example 94, 5-[4-[4-(trifluoromethyl)phenyl]piperazin-1-yl]sulfonylquinolin-8-ol] | ++ (a pIC50 of from about great than 6 to 7) | 
14 | CN(Cc1cccnc1)S(=O)(=O)c1ccc(O)c2ncccc12 [Example 54, 8-hydroxy-N-methyl-N-(3-pyridylmethyl)quinoline-5-sulfonamide] | +++ (a pIC50 of above about 7) | 
15 | O=S(=O)(c1ccc(O)c2ncccc12)N1CCCC(c2ccccc2)C1 (stereo not drawn) [Example 102, 5-[(3-phenyl-1-piperidyl)sulfonyl]quinolin-8-ol] | +++ (a pIC50 of above about 7) | 
16 | O=S(=O)(c1ccc(C(F)(F)F)cc1)c1ccc(O)c2ncccc12 [Example 11, 5-[4-(trifluoromethyl)phenyl]sulfonylquinolin-8-ol] | +++ (a pIC50 of above about 7) | 
17 | Cc1ccc(S(=O)(=O)c2cc(Br)c(O)c3ncccc23)cc1 [Example 108, 7-bromo-5-(p-tolylsulfonyl)quinolin-8-ol] | ++ (a pIC50 of from about great than 6 to 7) | 
18 | O=S(=O)(c1ccc(O)c2ncccc12)N1CCN(Cc2ccc(F)cc2)CC1 [Example 101, 5-[4-[(4-fluorophenyl)methyl]piperazin-1-yl]sulfonylquinolin-8-ol] | +++ (a pIC50 of above about 7) | 
19 | O=S(=O)(c1ccc(O)c2ncccc12)N1CCN(c2ccccc2)CC1 [Example 41, 5-(4-phenylpiperazin-1-yl)sulfonylquinolin-8-ol] | ++ (a pIC50 of from about great than 6 to 7) | 
20 | C[C@@](Cc1ccc(O)c(O)c1)(NN)C(=O)O [Carbidopa] |  | reduction of the efficacious L-DOPA dose [5]: 60-80%
21 | CCS(=O)(=O)c1ccc(O)c2ncccc12 [Example 33, 5-ethylsulfonylquinolin-8-ol] | + (a pIC50 of from about 4.5 to 6) | 
22 | C[C@H]1CCCN1S(=O)(=O)c1cc(Cl)c(O)c2ncccc12 [Example 118, 7-chloro-5-[(2S)-2-methylpyrrolidin-1-yl]sulfonyl-quinolin-8-ol] | ++ (a pIC50 of from about great than 6 to 7) | 
23 | C[C@H](c1ccccc1)N(C)S(=O)(=O)c1cc(Cl)c(O)c2ncccc12 [Example 117, 7-chloro-8-hydroxy-N-methyl-N-[(1R)-1-phenylethyl]quinoline-5-sulfonamide] | ++ (a pIC50 of from about great than 6 to 7) | 
